For one data set, the system named is Staphylococcus aureus. Description: Antibacterial activity against Staphylococcus aureus KCTC-1916 after 24 hrs by twofold dilution method. It counts as functional. The note with it: KCTC-1916, 24 h.
Data set [1] addresses T1, Tyrosinase (Agaricus bisporus, UniProt O42713).
T1 sequence (O42713 whole entry): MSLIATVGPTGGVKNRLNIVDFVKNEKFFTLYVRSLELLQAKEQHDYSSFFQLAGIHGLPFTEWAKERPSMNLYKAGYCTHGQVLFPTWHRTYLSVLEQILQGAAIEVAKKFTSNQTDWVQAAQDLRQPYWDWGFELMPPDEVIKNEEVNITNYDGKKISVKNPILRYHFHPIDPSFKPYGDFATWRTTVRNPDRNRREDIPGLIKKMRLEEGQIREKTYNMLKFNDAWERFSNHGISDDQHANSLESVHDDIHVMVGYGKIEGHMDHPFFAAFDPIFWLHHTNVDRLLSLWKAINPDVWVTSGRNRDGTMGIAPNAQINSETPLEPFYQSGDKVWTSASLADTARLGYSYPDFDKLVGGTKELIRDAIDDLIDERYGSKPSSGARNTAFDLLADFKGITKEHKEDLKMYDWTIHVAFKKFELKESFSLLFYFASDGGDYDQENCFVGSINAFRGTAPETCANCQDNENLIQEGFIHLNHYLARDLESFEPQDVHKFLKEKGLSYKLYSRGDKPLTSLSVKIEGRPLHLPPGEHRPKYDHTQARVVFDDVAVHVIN
Description: Inhibition of mushroom tyrosinase using L-DOPA as substrate after 2 mins by spectrophotometry

The next data set relates to Escherichia coli. The data set can be described thus: microbe, parasite or virus in culture. The note with it: KCTC-1924, 24 h.
Data set [2] addresses T1, Tyrosinase. The data set can be described thus: Competitive inhibition of mushroom tyrosinase using L-DOPA as substrate after 2 mins by Lineweaver-Burk plot.

Results on eleven molecules are retold here after ChEMBL document CHEMBL3351650, “Anti-tyrosinase, antioxidant, and antibacterial activities of novel 5-hydroxy-4-acetyl-2,3-dihydronaphtho[1,2-b]furans” (Eur J Med Chem, 2014).

Values after ≈ are worked out from the molar mass of the structure shown. Some results are limits rather than exact numbers.

Description for Escherichia coli: Antibacterial activity against Escherichia coli KCTC-1924 after 24 hrs by twofold dilution method

`CC(=O)c1c2c(c3ccccc3c1O)OC(OCC(C)C)C2` (stereo unspecified): the IC50 (usually the concentration that inhibits the measured activity by half) was 6.3 µg/mL (≈ 21 µM). The molecule further showed an MIC against Staphylococcus aureus of 32 µg/mL (≈ 107 µM). The molecule also had an IC50 at Tyrosinase [1] of 198 µM.
`CCOC1Cc2c(C(C)=O)c(O)c3ccccc3c2O1` (stereo unspecified) gave an IC50 of 25.11 µg/mL (≈ 92.2 µM). Further, the MIC with Escherichia coli is 16 µg/mL (≈ 58.8 µM). In addition, in the data set with Staphylococcus aureus, the MIC was found to be 0.5 µg/mL (≈ 1.84 µM). For the same molecule, at Tyrosinase [1], the IC50 was 305 µM.
As to `COC1(C)Cc2c(C(C)=O)c(O)c3ccccc3c2O1` (stereo unspecified), the 50% inhibitory concentration (IC50) is 31.47 µg/mL (≈ 116 µM). In addition, in the data set on Escherichia coli, the MIC amounted to 16 µg/mL (≈ 58.8 µM). The MIC against Staphylococcus aureus is 0.5 µg/mL (≈ 1.84 µM). In addition, the IC50 against Tyrosinase [1] is more than 367 µM.
`CC(=O)c1c2c(c3ccccc3c1O)O[C@H]1OCCC[C@@H]21` (relative stereo) displayed an IC50 of more than 100 µg/mL. In the data set with Escherichia coli, this molecule returned an MIC of 32 µg/mL (≈ 113 µM). The molecule further came in with an MIC with Staphylococcus aureus of 0.5 µg/mL (≈ 1.76 µM). For the same molecule, the 50% inhibitory concentration (IC50) against Tyrosinase [1] is 176 µM.
Molecule `CC(=O)c1c2c(c3ccccc3c1O)O[C@H]1OCC[C@@H]21` (relative stereo) displayed an IC50 of more than 100 µg/mL. The molecule also yielded an MIC against Escherichia coli of 2 µg/mL (≈ 7.4 µM). For the same molecule, the MIC against Staphylococcus aureus came to 8 µg/mL (≈ 29.6 µM). At Tyrosinase [1], this molecule had a 50% inhibitory concentration (IC50) of more than 370 µM.
`CCCCOC1Cc2c(C(C)=O)c(O)c3ccccc3c2O1` (stereo unspecified) showed an IC50 of 5.01 µg/mL (≈ 16.7 µM). The same molecule gave an MIC with Escherichia coli of 0.5 µg/mL (≈ 1.66 µM). The same molecule yielded an MIC against Staphylococcus aureus of 8 µg/mL (≈ 26.6 µM). At Tyrosinase [1], this molecule had an IC50 of 232 µM.
In turn, `CCO[C@@H]1Oc2c(c(C(C)=O)c(O)c3ccccc23)[C@@H]1C` (relative stereo) displayed an IC50 of 62.51 µg/mL (≈ 218 µM). The same molecule registered an MIC in the data set with Escherichia coli of 32 µg/mL (≈ 112 µM). The molecule further came in with an MIC in the data set with Staphylococcus aureus of 0.5 µg/mL (≈ 1.75 µM). At Tyrosinase [1], this molecule came in with an IC50 of more than 349 µM.
As to `CCO[C@H]1Oc2c(c(C(C)=O)c(O)c3ccccc23)[C@@H]1C` (relative stereo), the IC50 was more than 100 µg/mL. The molecule further showed an IC50 against Tyrosinase [1] of 107 µM.
In turn, `CCCOC1Cc2c(C(C)=O)c(O)c3ccccc3c2O1` (stereo unspecified) registered an IC50 of 3.33 µg/mL (≈ 11.6 µM). This molecule also showed an MIC against Escherichia coli of 0.5 µg/mL (≈ 1.75 µM). This molecule also gave an MIC in the data set on Staphylococcus aureus of 0.5 µg/mL (≈ 1.75 µM). This molecule also had an IC50 against Tyrosinase [1] of 31.1 µM. Further, the Ki (commonly a measure of affinity in units of concentration, obtained from inhibition or displacement) on Tyrosinase [2] came out at 11.2 µM.
With `COc1ccc(C2Cc3c(C(C)=O)c(O)c4ccccc4c3O2)cc1` (stereo unspecified), the IC50 was more than 100 µg/mL. The MIC in the data set on Staphylococcus aureus is 32 µg/mL (≈ 95.7 µM). At Tyrosinase [1], this molecule displayed an IC50 of more than 299 µM.
For the molecule `CC(=O)c1c2c(c3ccccc3c1O)OC(C)(c1ccccc1)C2` (stereo unspecified), the IC50 came to 77.62 µg/mL (≈ 244 µM). This molecule also displayed an MIC against Escherichia coli of 2 µg/mL (≈ 6.28 µM). In the data set on Staphylococcus aureus, the MIC was determined as 32 µg/mL (≈ 101 µM). Moreover, at Tyrosinase [1], the IC50 is more than 314 µM.
